{"source": "patent US20240336679A1", "about": "“METHODS FOR THE TREATMENT OF CANCER” (INSTITUT REGIONAL DU CANCER DE MONTPELLIER, priority 2021, published 2024)", "key": {"[1]": {"tested_on": "PHGDH, PSAT1 and PSPH mRNA in C2C12 myoblasts cocultured with IB115 liposarcoma cells", "assay": "Anti-IL-6 assay: RT-qPCR of serine synthesis genes in C2C12 myoblasts cocultured with IB115 cells treated with IL-6 signaling inhibitors", "assay_type": "cell-based, mouse", "conditions": "FIG. 11; for PSPH relative mRNA level: co-culture myoblasts with LPS, without inhibitors about 3.1; for PHGDH relative mRNA level / PSAT1 relative mRNA level: co-culture myocytes with LPS; for PHGDH relative mRNA level: without inhibitors 1.6; for PSAT1 relative mRNA level: without inhibitors about 2; for IL-6 dependent enhancement of the serine synthesis way (PHGDH, PSAT, PSPH mRNA): C2C12 myoblasts cocultured with IB115", "method": "(§1) Total mRNAs were isolated from myoblasts (C2C12 cells) using TRIzol Reagent (Invitrogen) as previously described (Riscal et al. Mol Cell. 2016 Jun. 16; 62 (6): 890-902). Afterwards, Reverse Transcription of 1 μg mRNA into cDNA was performed using SuperScript III Reverse Transcriptase (Invitrogen), according to the manufacturer protocol. Quantification of the produced cDNA was achieve by Real-time quantitative PCRs on a LightCycler 480 SW 1.5 apparatus (Roche) using SYBR Green mix (Ozyme) plus the oligonucleotides of interest, and the following amplification protocol: 45 cycles of 95° C. for 4 s, 60° C. for 10 s, and 72° C. for 15 s. Analysis of the relative gene expression (mRNA copy number) was realized using Ct values and the 2^−ΔCt method, normalized on at least two different housekeeping genes (TBP, Tubuline, RPL13a, Gus B, β-microglobuline).\nRelative quantities of mRNA of MDM2 direct target genes PHGDH, PSAT1 and PSPH were determined by RT-qPCR in C2C12 cells culture alone or in coculture with IB115 cells treated or not with a blocking anti-IL-6 antibody (Wijdenes et al., Mol Immunol, 28 (1991), p. 1183),i.e., IL-6 receptor inhibitor such as Bazedoxifène, or STAT3 inhibitors such as C188-9 and Stattic (mean+/−SD; n=3 independent experiments). Statistical significance was evaluated using non-parametric Mann-Whitney U tests."}, "[2]": {"tested_on": "cancer cells exhibiting recruitment of MDM2 to chromatin (C-MDM2 (+))", "assay": "Cell viability / IC50 measurement (SRB assay) upon SP141 treatment", "assay_type": "cell-based, human", "conditions": "FIG. 8; as soon as 24 hours after treatment with low concentrations", "method": "Cell survival after SP141, IL-6, IL-6 inhibitor and/or serine/glycine deprived diet treatment (IC50) was determined using the Sulforhodamine B assay (SRB assay). Cells were seeded in 96-well plates (Sarsted) in complete DMEM medium as to obtain triplicates for each conditions (5 000 cells/well). After 24 h, serial dilutions of the indicated compounds were added to the cells. […] Fixed SRB was finally dissolved in 10 mM Tris-HCl solution and 560 nm absorbance was read using a PHERAstar FSX plate reader."}, "XG-6 cells": {"tested_on": "XG-6 cells", "assay": "Growth of IL-6 dependent cell line XG-6", "assay_type": "cell-based", "conditions": "FIG. 3; RPMI, 2 ng/ml, 3 days; no growth without IL-6", "method": "50 000 XG-6 cells (IL-6 dependent cell line) were seeded in an equal number in four plastic dishes and cultured in suspension in 2 ml of RPMI (Gibco) medium at 37° C./5% CO2 for 3 days. The fourth dishes' conditions are as follows: • XG-6 cells cultured in 2 ml of RPMI in the presence of 2 ng/ml of recombinant IL-6 (obtained with the method illustrated in Wijdenes et al., Mol Immunol, 28 (1991), p. 1183) • XG-6 cells cultured in 2 ml of RPMI, • XG-6 cells cultured in 2 ml of MCF7 cell lines supernatant as previously obtained, • XG-6 cells cultured in 2 ml of IB115 cell lines supernatant as previously obtained."}, "[3]": {"tested_on": "PHGDH, PSAT1 and PSPH mRNA in C2C12 myoblasts cocultured with IB115 liposarcoma cells", "assay": "shRNA assay: RT-qPCR of serine synthesis genes in C2C12 myoblasts cocultured with IB115 cells depleted of human IL-6", "assay_type": "cell-based, mouse", "conditions": "FIG. 4, myocytes cultured with LPS (IB115) and treated with shIL-6", "method": "as §1\nRelative quantities of mRNA of MDM2 direct target genes PHGDH, PSAT1 and PSPH were determined by RT qPCR in C2C12 myoblasts cultured alone or in coculture with IB115 cells treated or not for shRNA mediated depletion of human IL-6 (shIL-6). Data were normalized to the corresponding control samples prepared from IB115 cells treated with a control shRNA (mean SD n=3 independent experiments) Statistical significance was evaluated using non parametric Mann Whitney U tests."}}, "note": "Where a name gives a salt, the structure may show the parent alone."}
{"compound": "Cc1c(-c2ccc(O)cc2)n(Cc2ccc(OCCN3CCCCCC3)cc2)c2ccc(O)cc12", "note": "[BZA, 1-[[4-[2-(Hexahydro-1H-azepin-1-yl)ethoxy]phenyl]methyl]-2-(4-hydroxyphenyl)-3-methyl-1H-indol-5-ol monoacetate (salt)]", "values": [{"measurement": "PSPH relative mRNA level", "setting": "[1]; 100 nM", "result": "about 1.8 A.U"}, {"measurement": "PHGDH relative mRNA level", "setting": "[1]; 100 nM", "result": "about 0.6 A.U"}, {"measurement": "PSAT1 relative mRNA level", "setting": "[1]; 100 nM", "result": "about 1.3 A.U"}]}
{"compound": "COc1ccc(S(=O)(=O)Nc2cc(-c3c(O)ccc4ccccc34)c(O)c3ccccc23)cc1", "note": "[C188-9]", "values": [{"measurement": "IL-6 dependent enhancement of the serine synthesis way (PHGDH, PSAT, PSPH mRNA)", "setting": "[1]; 10 nM", "result": "decreases"}, {"measurement": "PSPH relative mRNA level", "setting": "[1]; 10 nM", "result": "about 1.5 A.U"}, {"measurement": "PHGDH relative mRNA level", "setting": "[1]; 10 nM", "result": "about 0.5 A.U"}, {"measurement": "PSAT1 relative mRNA level", "setting": "[1]; 10 nM", "result": "about 1.3 A.U"}]}
{"compound": "COc1ccc2[nH]c3c(-c4cccc5ccccc45)nccc3c2c1", "note": "[SP141]", "values": [{"measurement": "cell viability of cancer cells C-MDM2 (+)", "setting": "[2]", "result": "important loss of cell viability"}]}
{"compound": "O=[N+]([O-])c1ccc2c(c1)S(=O)(=O)C=C2", "note": "[Stattic]", "values": [{"measurement": "IL-6 dependent enhancement of the serine synthesis way (PHGDH, PSAT, PSPH mRNA)", "setting": "[1]; 10 nM", "result": "decreases"}, {"measurement": "PSPH relative mRNA level", "setting": "[1]; 10 nM", "result": "about 1.75 A.U"}, {"measurement": "PSAT1 relative mRNA level", "setting": "[1]; 10 nM", "result": "~1.5", "unit": "A.U"}]}
{"compound": "recombinant IL-6: recombinant IL-6 obtained with the method of Wijdenes et al.; positive control for XG-6 growth", "values": [{"measurement": "Quantity of XG-6 cells", "setting": "XG-6 cells", "result": "more than 150000 AU"}]}
{"compound": "shIL-6: shRNA to inactivate human IL-6 expression; a sequence may be 5′-GACACTATTTTAATTATTTTTAA-3′ (shRNA, chemistry and expression mode not given here, further chemistry not given here)", "values": [{"measurement": "relative mRNA level of PSAT", "setting": "[3]; myocytes alone about 1, with LPS about 1.75", "result": "about 1 AU"}, {"measurement": "relative mRNA level of PSPH", "setting": "[3]; myocytes alone about 1, with LPS about 2.5", "result": "about 1 AU"}, {"measurement": "relative mRNA level of PHGDH", "setting": "[3]; myocytes alone about 1, with LPS about 4.4", "result": "about 1.75 AU"}]}
